Laboratory results as given in patent US9695192B2, “Fused heterocyclic compounds as ion channel modulators” (GILEAD SCIENCES, INC., priority 2011, dated 2017).
Read-outs that look alike come from different tables or passages of the source.

What was measured:
[1] = target: wild-type human cardiac sodium channel, hNav1.5 (Homo sapiens, UniProt Q14524); assay: Late INa screening assay (QPatch whole cell patch clamp, tefluthrin-enhanced late sodium current); type: cell-based; conditions: HEK293 hNav1.5, late INa activated with 10 μM Tefluthrin
Method: The late sodium current (Late INa) and peak sodium current (Peak INa) assays are performed on an automated electrophysiology platform, QPatch 16X (Sophion Bioscience, Copenhagen, Denmark), which uses the whole cell patch clamp technique to measure currents through the cell membrane of up to 16 cells at a time. The assay uses an HEK293 (human embryonic kidney) cell line heterologously expressing the wild-type human cardiac sodium channel, hNav1.5, purchased from Millipore (Billerica, Mass.). No beta subunits were coexpressed with the Na channel alpha subunit. Cells are maintained with standard tissue culture procedures and stable channel expression is maintained with 400 μg/mL Geneticin in the culture medium. Cells isolated for use on QPatch are incubated for 5 minutes in Detachin 1X (Genlantis, San Diego, USA) at 37° C. to ensure that 80-90% of the cells are single and not part of a cell cluster. Experiments are carried out at 23-25° C.
For both the Late INa and Peak INa assays, series resistance compensation is set to 100% and series resistance and whole-cell compensation are performed automatically. Currents are digitized at 25 kHz and low-pass filtered at 12 kHz and 10 kHz for the late and peak INa assays, respectively. Currents through open sodium channels are automatically recorded and stored in the Sophion Bioscience Oracle database (Sophion Bioscience, Copenhagen, Denmark). Analysis is performed using QPatch Assay and database software and data are compiled in Excel.
Compound stocks are routinely made by the Gilead Sample Bank in plastic vials to 10 mM in dimethyl sulfoxide (DMSO). In some cases, when compounds are not soluble in DMSO, they are made in 100% ethanol. Stocks are sonicated as necessary. The extracellular solution for screening Late INa is composed of: 140 mM NaCl, 4 mM KCl, 1.8 mM CaCl2, 0.75 mM MgCl2 and 5 mM HEPES with pH adjusted to 7.4 using NaOH. The intracellular solution used to perfuse the inside of the cells for both the Late INa and Peak INa assays contains: 120 mM CsF, 20 mM CsCl, 5 mM EGTA, 5 mM HEPES and pH adjusted to 7.4 with CsOH. Compounds are diluted in extracellular solution to 1 μM in glass vials and then transferred to glass well plates before robotic addition to the cells. A 0 mM Na extracellular solution (0 Na-ECF) is used at the end of each experiment for the Late INa and Peak INa assays to measure baseline current contains: 140 mM N-methyl-D-glucamine; 4 mM KCl; 1.8 mM CaCl2; 0.75 mM MgCl2; 5 mM HEPES and pH was adjusted to 7.4 with HCl.
For the hNav1.5 Late INa assay, sodium channels are activated every 10 seconds (0.1 Hz) by depolarizing the cell membrane to −20 mV for 250 milliseconds (ms) from a holding potential of −120 mV. In response to a −20 mV voltage step, typical hNav1.5 sodium currents activate rapidly to a peak negative current and then inactivate nearly completely within 3-4 ms.
Compounds were tested to determine their activity in blocking the late sodium current. Late INa was generated by adding 10 μM Tefluthrin (pyrethroid) to the extracellular solution while recording Na currents. To confirm the block of late INa observed using the automated screening method, a second late INa enhancer (ATX-II) and the manual patch clamp method were used. ATX-II and tefluthrin occupy distinct, non-overlapping binding sites and modify Na^+ channel function differently to increase late INa. Compounds tested have been found generally to inhibit the enhanced late INa caused by either late INa enhancer. For the purposes of the screening, late INa is defined as the mean current between 225 ms and 250 ms after stepping to −20 mV to activate Na channels. After establishing the whole cell recording configuration, late INa activator is added to each well 4 times over a 16-17 minute period so that the late component of the Na current reaches a stable value. Compounds were then added (typically at 1 μM), in the presence of the late INa activator, with 3 additions over the course of 7 or 8 minutes. […]

hNav1.5 Peak INa = hNav1.5 Peak INa (Homo sapiens, UniProt Q14524); assay: Peak INa screening assay (tonic block and use-dependent block); type: cell-based
Method: The assay uses an HEK293 (human embryonic kidney) cell line heterologously expressing the wild-type human cardiac sodium channel, hNav1.5, purchased from Millipore (Billerica, Mass.). No beta subunits were coexpressed with the Na channel alpha subunit. Cells are maintained with standard tissue culture procedures and stable channel expression is maintained with 400 μg/mL Geneticin in the culture medium. […] Experiments are carried out at 23-25° C. […] Currents through open sodium channels are automatically recorded and stored in the Sophion Bioscience Oracle database (Sophion Bioscience, Copenhagen, Denmark). Analysis is performed using QPatch Assay and database software and data are compiled in Excel. Compound stocks are routinely made by the Gilead Sample Bank in plastic vials to 10 mM in dimethyl sulfoxide (DMSO). […] Stocks are sonicated as necessary. […] Compounds are diluted in extracellular solution to 1 μM in glass vials and then transferred to glass well plates before robotic addition to the cells. […] Good separation between the concentrations of test compound to reduce late and peak INa is beneficial to enable separation of the desired effect to reduce late INa-induced electrical and mechanical dysfunction from the undesired effect to reduce peak INa, which can lead to slowing or block of conduction of electrical excitation in the heart. It is contemplated that the compounds of Formula I avoid significant block of peak INa. […] Analysis of peak INa generally requires correction for rundown before determining the % block of peak current by the tested compound. […] Use-dependent block refers to the accumulation of block with increased frequency of channel activation. […] It is therefore expected that reduction of peak INa by compounds of this disclosure will be greater at high heart rates, such as those during tachyarrhythmias, than at normal heart rates. […] The intracellular solution used for the Peak INa assay is the same as outlined for the Late INa assay (see above). […] After establishing the whole cell recording configuration, channels were stimulated to open with low frequency stimulation (0.1 Hz) for 7 minutes so that the recording can be monitored and the extent to which the recording has stabilized can be assessed. […] Both TB and UDB were analyzed by incorporating rundown correction for the peak INa and UDB as calculated by compensating for the small use-dependent effect of the stimulation protocol on peak INa in the absence of compound.

[2] = at 1 μM, 3 Hz stimulation, holding potential −100 mV, read-out: Peak UDB (use-dependent block of peak INa) % Inhibition
[3] = read-out: Peak TB (tonic block of peak INa) % Inhibition

Chain of hNav1.5 Peak INa (Q14524 whole entry): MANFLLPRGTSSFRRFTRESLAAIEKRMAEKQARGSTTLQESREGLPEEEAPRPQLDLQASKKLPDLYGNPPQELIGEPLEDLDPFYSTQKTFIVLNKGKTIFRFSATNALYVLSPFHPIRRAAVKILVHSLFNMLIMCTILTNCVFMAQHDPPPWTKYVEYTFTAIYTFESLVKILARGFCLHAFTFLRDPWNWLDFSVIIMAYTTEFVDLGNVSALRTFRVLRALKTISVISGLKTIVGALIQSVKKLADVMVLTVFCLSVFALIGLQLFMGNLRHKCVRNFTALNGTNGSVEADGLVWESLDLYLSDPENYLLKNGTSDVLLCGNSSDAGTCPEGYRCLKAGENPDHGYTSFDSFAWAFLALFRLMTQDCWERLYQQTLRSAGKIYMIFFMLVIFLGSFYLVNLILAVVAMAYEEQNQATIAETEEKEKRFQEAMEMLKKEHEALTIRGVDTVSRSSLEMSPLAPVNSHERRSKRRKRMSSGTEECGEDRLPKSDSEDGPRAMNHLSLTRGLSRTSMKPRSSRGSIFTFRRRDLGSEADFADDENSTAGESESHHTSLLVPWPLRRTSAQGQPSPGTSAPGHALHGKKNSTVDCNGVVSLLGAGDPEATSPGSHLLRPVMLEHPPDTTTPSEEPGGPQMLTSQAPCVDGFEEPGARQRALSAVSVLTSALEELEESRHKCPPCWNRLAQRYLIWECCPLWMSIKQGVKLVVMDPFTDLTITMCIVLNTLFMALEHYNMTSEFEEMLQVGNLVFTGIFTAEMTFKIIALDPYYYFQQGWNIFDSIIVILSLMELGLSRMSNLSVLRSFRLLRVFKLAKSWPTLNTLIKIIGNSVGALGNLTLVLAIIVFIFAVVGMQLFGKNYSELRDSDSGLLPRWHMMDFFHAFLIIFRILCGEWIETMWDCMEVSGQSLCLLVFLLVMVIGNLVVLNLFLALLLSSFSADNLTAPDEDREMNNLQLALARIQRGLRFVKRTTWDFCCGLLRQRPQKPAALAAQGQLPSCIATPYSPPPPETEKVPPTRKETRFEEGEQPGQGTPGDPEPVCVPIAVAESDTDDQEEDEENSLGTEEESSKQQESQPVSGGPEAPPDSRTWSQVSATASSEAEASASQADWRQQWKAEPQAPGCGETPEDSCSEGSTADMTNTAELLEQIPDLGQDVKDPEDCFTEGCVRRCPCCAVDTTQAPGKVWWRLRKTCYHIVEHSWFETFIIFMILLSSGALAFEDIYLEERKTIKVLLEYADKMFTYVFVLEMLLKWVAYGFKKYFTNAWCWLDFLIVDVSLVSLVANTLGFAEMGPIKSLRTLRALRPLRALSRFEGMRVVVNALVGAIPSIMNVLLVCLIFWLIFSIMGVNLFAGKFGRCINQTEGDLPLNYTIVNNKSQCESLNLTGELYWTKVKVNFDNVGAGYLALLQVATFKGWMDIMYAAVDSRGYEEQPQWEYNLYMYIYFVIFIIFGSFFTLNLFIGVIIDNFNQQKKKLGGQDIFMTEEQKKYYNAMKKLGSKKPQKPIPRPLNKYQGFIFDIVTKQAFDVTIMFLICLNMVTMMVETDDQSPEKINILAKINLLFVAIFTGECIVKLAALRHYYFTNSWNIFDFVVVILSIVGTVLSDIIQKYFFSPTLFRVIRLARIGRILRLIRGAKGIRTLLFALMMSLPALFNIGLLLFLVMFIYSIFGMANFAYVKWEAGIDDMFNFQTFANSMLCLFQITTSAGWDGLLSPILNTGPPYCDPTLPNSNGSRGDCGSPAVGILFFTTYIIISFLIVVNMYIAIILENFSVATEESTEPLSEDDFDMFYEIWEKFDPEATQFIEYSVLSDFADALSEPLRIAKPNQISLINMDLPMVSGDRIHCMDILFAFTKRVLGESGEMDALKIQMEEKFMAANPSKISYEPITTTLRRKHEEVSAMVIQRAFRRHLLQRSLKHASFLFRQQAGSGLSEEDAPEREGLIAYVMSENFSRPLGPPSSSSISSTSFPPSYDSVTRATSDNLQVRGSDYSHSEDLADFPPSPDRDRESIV
Chain of wild-type human cardiac sodium channel, hNav1.5 (Q14524 whole entry): as above

| SMILES | inhibition at 1 µM [1] | inhibition at 1 µM (hNav1.5 Peak INa; [2]) | inhibition at 1 µM (hNav1.5 Peak INa; [3]) |
| --- | --- | --- | --- |
| FC(F)(F)c1ccc(-c2ccc3c(c2)C(NCC2CC2)=NCCO3)cc1 [II-11, N-(cyclopropylmethyl)-7-(4-(trifluoromethyl)phenyl)-2,3-dihydrobenzo[f][1,4]oxazepin-5-amine] | 41% | 31% | 11% |
| CN(C)[C@H]1CCN(C2=NCCOc3ccc(-c4ccc(C(F)(F)F)cc4)cc32)C1 [II-15, (S)—N,N-dimethyl-1-(7-(4-(trifluoromethyl)phenyl)-2,3-dihydrobenzo[f][1,4]oxazepin-5-yl)pyrrolidin-3-amine] | 49% | 27% | 16% |
| FC(F)(F)c1ccc(-c2ccc3c(c2)C(NCCOc2ccccn2)=NCCO3)cc1 [II-20, N-(2-(pyridin-2-yloxy)ethyl)-7-(4-(trifluoromethyl)phenyl)-2,3-dihydrobenzo[f][1,4]oxazepin-5-amine] | 59% | 89% | 30% |
| FC(F)(F)c1ccc(-c2ccc3c(c2)C(NCCOc2ccccc2)=NCCO3)cc1 [II-22, N-(2-phenoxyethyl)-7-(4-(trifluoromethyl)phenyl)-2,3-dihydrobenzo[f][1,4]oxazepin-5-amine] | 60% | 69% | 19% |
| CC(C)(C)OC(=O)N1CC[C@H](NC2=NCCOc3ccc(-c4ccc(C(F)(F)F)cc4)cc32)C1 [II-43, (S)-tert-butyl 3-(7-(4-(trifluoromethyl)phenyl)-2,3-dihydrobenzo[f][1,4]oxazepin-5-ylamino)pyrrolidine-1-carboxylate] | 46% | 31% | 12% |
| CCN(CC)[C@@H]1CCN(C2=NCCOc3ccc(-c4ccc(C(F)(F)F)cc4)cc32)C1 [II-49, (R)—N,N-diethyl-1-(7-(4-(trifluoromethyl)phenyl)-2,3-dihydrobenzo[f][1,4]oxazepin-5-yl)pyrrolidin-3-amine] | 11% |  |  |
| CC(C)(C)OC(=O)N[C@@H]1CCN(C2=NCCOc3ccc(-c4ccc(C(F)(F)F)cc4)cc32)C1 [II-50, (R)-tert-butyl 1-(7-(4-(trifluoromethyl)phenyl)-2,3-dihydrobenzo[f][1,4]oxazepin-5-yl)pyrrolidin-3-ylcarbamate] | 22% |  |  |
| CN(C)[C@@H]1CCN(C2=NCCOc3ccc(-c4ccc(C(F)(F)F)cc4)cc32)C1 [II-51, (R)—N,N-dimethyl-1-(7-(4-(trifluoromethyl)phenyl)-2,3-dihydrobenzo[f][1,4]oxazepin-5-yl)pyrrolidin-3-amine] | 21% |  |  |
| CN1CCN(C2=NCCOc3ccc(-c4ccc(C(F)(F)F)cc4)cc32)CC1 [II-52, 5-(4-methylpiperazin-1-yl)-7-(4-(trifluoromethyl)phenyl)-2,3-dihydrobenzo[f][1,4]oxazepine] | 10% |  |  |
| C[C@H]1CN(C(=O)OC(C)(C)C)CCN1C1=NCCOc2ccc(-c3ccc(C(F)(F)F)cc3)cc21 [II-53, (S)-tert-butyl 3-methyl-4-(7-(4-(trifluoromethyl)phenyl)-2,3-dihydrobenzo[f][1,4]oxazepin-5-yl)piperazine-1-carboxylate] | 2% |  |  |
| FC(F)(F)c1ccc(-c2ccc3c(c2)C(N2CCC(N4CCOCC4)C2)=NCCO3)cc1 (centres unmarked) [II-55, 5-(3-morpholinopyrrolidin-1-yl)-7-(4-(trifluoromethyl)phenyl)-2,3-dihydrobenzo[f][1,4]oxazepine] | 18% |  |  |
| N[C@H]1CCN(C2=NCCOc3ccc(-c4ccc(C(F)(F)F)cc4)cc32)C1 [II-56, (S)-1-(7-(4-(trifluoromethyl)phenyl)-2,3-dihydrobenzo[f][1,4]oxazepin-5-yl)pyrrolidin-3-amine] | 17% |  |  |
| CC(C)(C)OC(=O)NC1CCN(C2=NCCOc3ccc(-c4ccc(C(F)(F)F)cc4)cc32)C1 (centres unmarked) [II-57, tert-butyl 1-(7-(4-(trifluoromethyl)phenyl)-2,3-dihydrobenzo[f][1,4]oxazepin-5-yl)pyrrolidin-3-ylcarbamate] | 23% |  |  |
| FC(F)(F)c1ccc(-c2ccc3c(c2)C(N2CCCC2c2ccccn2)=NCCO3)cc1 (centres unmarked) [II-58, 5-(2-(pyridin-2-yl)pyrrolidin-1-yl)-7-(4-(trifluoromethyl)phenyl)-2,3-dihydrobenzo[f][1,4]oxazepine] | 18% |  |  |
| FC(F)(F)c1ccc(-c2ccc3c(c2)C(NC2CCNC2)=NCCO3)cc1 (centres unmarked) [II-59, N-(pyrrolidin-3-yl)-7-(4-(trifluoromethyl)phenyl)-2,3-dihydrobenzo[f][1,4]oxazepin-5-amine] | 8% |  |  |
| FC(F)(F)c1ccc(-c2ccc3c(c2)C(N2CCC(c4ccccn4)C2)=NCCO3)cc1 (centres unmarked) [II-60, 5-(3-(pyridin-2-yl)pyrrolidin-1-yl)-7-(4-(trifluoromethyl)phenyl)-2,3-dihydrobenzo[f][1,4]oxazepine] | 42% | 25% | 10% |
| OC(CN[C@@H]1CCN(C2=NCCOc3ccc(-c4ccc(C(F)(F)F)cc4)cc32)C1)COc1cccc2ccccc12 (stereo partly drawn) [II-61, 1-(naphthalen-1-yloxy)-3-((R)-1-(7-(4-(trifluoromethyl)phenyl)-2,3-dihydrobenzo[f][1,4]oxazepin-5-yl)pyrrolidin-3-ylamino)propan-2-ol] | 12% |  |  |
| CC(C)(C)OC(=O)N1CCC(NC2=NCCOc3ccc(-c4ccc(C(F)(F)F)cc4)cc32)C1 (centres unmarked) [II-62, tert-butyl 3-(7-(4-(trifluoromethyl)phenyl)-2,3-dihydrobenzo[f][1,4]oxazepin-5-ylamino)pyrrolidine-1-carboxylate] | 43% | 32% | 8% |
| CC(C)(C)OC(=O)N1CC[C@@H](NC2=NCCOc3ccc(-c4ccc(C(F)(F)F)cc4)cc32)C1 [II-63, (R)-tert-butyl 3-(7-(4-(trifluoromethyl)phenyl)-2,3-dihydrobenzo[f][1,4]oxazepin-5-ylamino)pyrrolidine-1-carboxylate] | 51% | 31% | 12% |
